Assays:
[1] = target: T1, Sodium-dependent serotonin transporter (Rattus norvegicus, UniProt P31652); assay type: cell-based, HEK293
[2] = target: T1, Sodium-dependent serotonin transporter; assay: Inhibition of radiolabeled serotonin uptake from rat brain SERT
[3] = Lipophilicity, log D of the compound; assay type: physicochemical; conditions: octanol/water
[4] = Partition coefficient, log P of the compound; assay type: physicochemical; conditions: octanol/water
[5] = Metabolic stability in human liver microsomes assessed as systemic clearance at 1 uM after 15 mins by LC-MS/MS analysis; assay type: ADME, Microsome
[6] = Metabolic stability in rat liver microsomes assessed as systemic clearance at 1 uM after 15 mins by LC-MS/MS analysis; assay type: ADME, Microsome
[7] = Oral bioavailability in human; assay type: ADME, organism-based; conditions: in vivo
[8] = Drug excretion in human urine; assay type: ADME; conditions: read-out: Activity
Transporter [9] = target: T2, Transporter (Rattus norvegicus, UniProt Q63380)
Description: Inhibition of radiolabeled noradrenaline uptake from rat brain NET

[10] = target: Sodium-dependent dopamine transporter (Rattus norvegicus, UniProt P23977); assay: biochemical
Description: Displacement of 3,4-[ring-2,5,6-3H]dihydroxyphenylethylamine from rat synaptosomal DAT expressed in HEK293 cells by microplate scintillation counter

Cytochrome P450 2D6 = Cytochrome P450 2D6 (Homo sapiens, UniProt P10635); assay: Inhibition of CYP2D6; assay type: ADME
[11] = Cmax in Sprague-Dawley rat at 30 mg/kg, po; assay type: ADME, organism-based; design: dose 30 mg/kg, route oral; conditions: in vivo
[12] = Tmax in Sprague-Dawley rat at 30 mg/kg, po; assay type: ADME, organism-based; design: dose 30 mg/kg, route oral; conditions: in vivo
[13] = AUC in Sprague-Dawley rat at 30 mg/kg, po; assay type: ADME, organism-based; design: dose 30 mg/kg, route oral; conditions: plasma
[14] = Apparent elimination half life in Sprague-Dawley rat at 30 mg/kg, po; assay type: ADME, organism-based; design: dose 30 mg/kg, route oral; conditions: in vivo, read-out: beta t1/2 (converted)
[15] = Apparent oral clearance in Sprague-Dawley rat at 30 mg/kg, po; assay type: ADME, organism-based; design: dose 30 mg/kg, route oral; conditions: in vivo
[16] = Drug level in Sprague-Dawley rat brain at 30 mg/kg, po after 1 hr; assay type: ADME, organism-based; design: dose 30 mg/kg, route oral; conditions: read-out: Drug uptake
[17] = Drug level in Sprague-Dawley rat brain at 30 mg/kg, po after 4 hrs; assay type: ADME, organism-based; design: dose 30 mg/kg, route oral; conditions: read-out: Drug uptake
[18] = Ratio of drug level in brain to plasma in Sprague-Dawley rat at 30 mg/kg, po after 1 hr; assay type: ADME, organism-based; design: dose 30 mg/kg, route oral
[19] = Ratio of drug level in brain to plasma in Sprague-Dawley rat at 30 mg/kg, po after 4 hrs; assay type: ADME, organism-based; design: dose 30 mg/kg, route oral
[20] = AUC in Sprague-Dawley rat at 5 mg/kg, iv; assay type: ADME, organism-based; design: dose 5 mg/kg, route intravenous; conditions: plasma
[21] = Half life in Sprague-Dawley rat at 5 mg/kg, iv; assay type: ADME, organism-based; design: dose 5 mg/kg, route intravenous; conditions: in vivo
[22] = Mean residence time in Sprague-Dawley rat at 5 mg/kg, iv; assay type: ADME, organism-based; design: dose 5 mg/kg, route intravenous; conditions: in vivo
[23] = Plasma clearance in Sprague-Dawley rat at 5 mg/kg, iv; assay type: ADME, organism-based; design: dose 5 mg/kg, route intravenous
[24] = Renal clearance in Sprague-Dawley rat at 5 mg/kg, iv; assay type: ADME, organism-based, Kidney; design: dose 5 mg/kg, route intravenous; conditions: in vivo, read-out: CL_renal
[25] = Volume of distribution at steady state in Sprague-Dawley rat at 5 mg/kg, iv; assay type: ADME, organism-based; design: dose 5 mg/kg, route intravenous; conditions: in vivo, read-out: Vdss
[26] = Volume of distribution in Sprague-Dawley rat at 5 mg/kg, iv; assay type: ADME, organism-based; design: dose 5 mg/kg, route intravenous; conditions: in vivo
[27] = Bioavailability in Sprague-Dawley rat at 5 mg/kg, iv; assay type: ADME, organism-based; conditions: in vivo
Rattus norvegicus [28] = assay: Antinociceptive activity in CD rat assessed as reduction in number of hind paw flinching at 60 mg/kg, po by formalin test; assay type: functional; design: scale not given: the % may be the effect or the level left
Rattus norvegicus [29] = assay: Reversal of pin-prick-induced neuropathic mechanical hyperalgesia in Harlan Sprague-Dawley rat sciatic nerve ligation model at 30 mg/kg, po; assay type: functional
in vitro = conditions: human, Caco-2
Description: Apparent permeability from apical to basolateral side of the human Caco-2 cells

[30] = target: Sodium-dependent noradrenaline transporter (Homo sapiens, UniProt P23975); assay: biochemical
Description: Displacement of Levo[ring-2,5,6-3H]norepinephrine from human cloned NET expressed in HEK293 cells by microplate scintillation counter

[31] = target: Sodium-dependent serotonin transporter (Homo sapiens, UniProt P31645); assay: biochemical
Description: Displacement of [alpha,beta-3H(N)]-5-hydroxytryptamine from human cloned SERT expressed in HEK293 cells by microplate scintillation counter

[32] = target: Sodium-dependent dopamine transporter (Homo sapiens, UniProt Q01959); assay: biochemical
Description: Displacement of 3,4-[ring-2,5,6-3H]dihydroxyphenylethylamine from human cloned DAT expressed in HEK293 cells by microplate scintillation counter

Transporter [33] = target: T2, Transporter; assay: biochemical
Description: Displacement of Levo[ring-2,5,6-3H]norepinephrine from rat synaptosomal NET expressed in HEK293 cells by microplate scintillation counter

[34] = Cmax in Fischer 344 rat at 50 mg/kg, po; assay type: ADME, organism-based; design: dose 50 mg/kg, route oral; conditions: in vivo
[35] = Tmax in Fischer 344 rat at 50 mg/kg, po; assay type: ADME, organism-based; design: dose 50 mg/kg, route oral; conditions: in vivo
Rattus norvegicus [36] = assay: AUC in Fischer 344 rat at 50 mg/kg, po; assay type: ADME, organism-based, Plasma; design: dose 50 mg/kg, route oral; conditions: in vivo
[37] = Apparent elimination half life in Fischer 344 rat at 50 mg/kg, po; assay type: ADME, organism-based; design: dose 50 mg/kg, route oral; conditions: in vivo, read-out: beta t1/2 (converted)
Rattus norvegicus [38] = assay: Oral bioavailability in Fischer 344 rat at 50 mg/kg; assay type: ADME, organism-based; conditions: in vivo

T1 sequence (P31652 whole entry): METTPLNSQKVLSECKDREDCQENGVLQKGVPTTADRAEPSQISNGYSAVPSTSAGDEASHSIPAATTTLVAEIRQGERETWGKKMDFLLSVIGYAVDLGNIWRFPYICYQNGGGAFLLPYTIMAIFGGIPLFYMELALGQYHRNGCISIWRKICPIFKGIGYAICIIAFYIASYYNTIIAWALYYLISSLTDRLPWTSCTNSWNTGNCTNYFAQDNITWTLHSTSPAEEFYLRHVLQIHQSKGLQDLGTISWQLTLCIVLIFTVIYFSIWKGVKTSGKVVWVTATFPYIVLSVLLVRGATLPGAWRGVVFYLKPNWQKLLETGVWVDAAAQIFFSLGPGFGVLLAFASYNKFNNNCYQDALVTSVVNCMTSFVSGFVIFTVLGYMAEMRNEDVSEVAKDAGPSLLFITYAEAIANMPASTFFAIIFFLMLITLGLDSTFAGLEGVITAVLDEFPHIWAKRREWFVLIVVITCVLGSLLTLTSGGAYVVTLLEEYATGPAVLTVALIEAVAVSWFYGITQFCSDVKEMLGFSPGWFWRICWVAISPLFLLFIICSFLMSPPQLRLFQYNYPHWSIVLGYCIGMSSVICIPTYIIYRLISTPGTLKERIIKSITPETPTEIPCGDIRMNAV
Sequence of Sodium-dependent dopamine transporter (Rattus norvegicus, UniProt P23977) (P23977 whole entry): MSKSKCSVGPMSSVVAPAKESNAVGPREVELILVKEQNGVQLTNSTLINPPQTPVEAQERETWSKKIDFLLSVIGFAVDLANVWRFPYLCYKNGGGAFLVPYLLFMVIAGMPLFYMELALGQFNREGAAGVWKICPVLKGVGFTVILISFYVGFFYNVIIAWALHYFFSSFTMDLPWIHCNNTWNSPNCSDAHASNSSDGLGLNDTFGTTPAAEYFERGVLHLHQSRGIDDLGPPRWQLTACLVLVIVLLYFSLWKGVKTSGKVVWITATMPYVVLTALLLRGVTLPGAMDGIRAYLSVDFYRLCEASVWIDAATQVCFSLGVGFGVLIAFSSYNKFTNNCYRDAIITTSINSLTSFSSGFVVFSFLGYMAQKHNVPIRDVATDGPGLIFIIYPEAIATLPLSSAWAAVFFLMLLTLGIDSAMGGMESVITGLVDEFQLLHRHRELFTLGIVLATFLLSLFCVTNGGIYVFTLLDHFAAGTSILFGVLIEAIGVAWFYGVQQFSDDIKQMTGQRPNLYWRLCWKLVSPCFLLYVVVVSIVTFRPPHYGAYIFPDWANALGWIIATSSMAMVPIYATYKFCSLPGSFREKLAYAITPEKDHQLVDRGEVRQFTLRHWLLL
T2 sequence (Q63380 whole entry): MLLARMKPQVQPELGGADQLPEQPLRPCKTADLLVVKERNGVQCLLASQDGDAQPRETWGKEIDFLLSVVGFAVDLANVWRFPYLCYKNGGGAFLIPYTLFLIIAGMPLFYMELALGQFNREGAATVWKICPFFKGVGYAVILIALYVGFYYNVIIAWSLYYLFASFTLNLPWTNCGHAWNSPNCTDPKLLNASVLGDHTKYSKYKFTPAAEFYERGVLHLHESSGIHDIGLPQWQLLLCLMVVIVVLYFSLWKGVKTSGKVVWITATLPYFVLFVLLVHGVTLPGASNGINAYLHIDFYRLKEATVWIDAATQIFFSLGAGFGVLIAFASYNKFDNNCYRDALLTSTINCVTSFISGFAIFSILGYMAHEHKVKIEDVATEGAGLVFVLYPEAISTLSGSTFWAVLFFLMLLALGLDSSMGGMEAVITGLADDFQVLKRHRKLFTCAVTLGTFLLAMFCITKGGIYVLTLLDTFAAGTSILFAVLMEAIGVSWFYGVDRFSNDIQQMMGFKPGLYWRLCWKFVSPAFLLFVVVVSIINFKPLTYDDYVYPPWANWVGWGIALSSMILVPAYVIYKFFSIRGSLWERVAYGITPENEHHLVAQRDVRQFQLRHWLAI
Sequence of Sodium-dependent noradrenaline transporter (P23975 whole entry): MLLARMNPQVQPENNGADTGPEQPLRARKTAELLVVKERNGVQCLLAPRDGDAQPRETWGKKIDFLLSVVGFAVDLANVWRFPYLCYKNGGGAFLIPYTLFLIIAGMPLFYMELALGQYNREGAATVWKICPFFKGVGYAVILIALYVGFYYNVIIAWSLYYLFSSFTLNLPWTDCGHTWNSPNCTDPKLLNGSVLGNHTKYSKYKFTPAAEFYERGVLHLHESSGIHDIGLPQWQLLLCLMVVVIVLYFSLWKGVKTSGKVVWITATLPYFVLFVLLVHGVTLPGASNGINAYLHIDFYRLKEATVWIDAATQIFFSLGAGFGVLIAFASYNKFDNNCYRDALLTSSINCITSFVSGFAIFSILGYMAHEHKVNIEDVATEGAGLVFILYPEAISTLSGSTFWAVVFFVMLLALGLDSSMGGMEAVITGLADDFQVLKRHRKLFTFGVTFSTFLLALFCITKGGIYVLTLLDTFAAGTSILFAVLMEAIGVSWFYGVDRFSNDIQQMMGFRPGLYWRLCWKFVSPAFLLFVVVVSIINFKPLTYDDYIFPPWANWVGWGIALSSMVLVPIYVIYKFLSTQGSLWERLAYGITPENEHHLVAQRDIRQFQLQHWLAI
Sequence of Sodium-dependent dopamine transporter (Homo sapiens, UniProt Q01959) (Q01959 whole entry): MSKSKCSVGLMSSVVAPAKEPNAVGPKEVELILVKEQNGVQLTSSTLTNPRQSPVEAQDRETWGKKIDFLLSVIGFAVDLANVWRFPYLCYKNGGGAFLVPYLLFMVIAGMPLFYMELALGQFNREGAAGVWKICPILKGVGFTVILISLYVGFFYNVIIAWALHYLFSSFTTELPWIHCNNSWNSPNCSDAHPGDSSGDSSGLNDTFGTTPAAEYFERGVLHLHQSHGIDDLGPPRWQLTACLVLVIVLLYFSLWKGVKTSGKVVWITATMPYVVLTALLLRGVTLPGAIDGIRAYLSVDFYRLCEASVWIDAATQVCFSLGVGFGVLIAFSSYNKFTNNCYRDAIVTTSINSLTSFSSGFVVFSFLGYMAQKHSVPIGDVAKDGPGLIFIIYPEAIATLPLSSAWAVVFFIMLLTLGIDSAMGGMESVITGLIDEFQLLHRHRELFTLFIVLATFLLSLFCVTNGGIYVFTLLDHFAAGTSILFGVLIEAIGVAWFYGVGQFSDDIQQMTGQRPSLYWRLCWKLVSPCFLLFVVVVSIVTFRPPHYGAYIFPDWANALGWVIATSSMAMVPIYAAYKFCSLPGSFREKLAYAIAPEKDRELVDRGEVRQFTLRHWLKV
Sequence of Cytochrome P450 2D6 (P10635 whole entry): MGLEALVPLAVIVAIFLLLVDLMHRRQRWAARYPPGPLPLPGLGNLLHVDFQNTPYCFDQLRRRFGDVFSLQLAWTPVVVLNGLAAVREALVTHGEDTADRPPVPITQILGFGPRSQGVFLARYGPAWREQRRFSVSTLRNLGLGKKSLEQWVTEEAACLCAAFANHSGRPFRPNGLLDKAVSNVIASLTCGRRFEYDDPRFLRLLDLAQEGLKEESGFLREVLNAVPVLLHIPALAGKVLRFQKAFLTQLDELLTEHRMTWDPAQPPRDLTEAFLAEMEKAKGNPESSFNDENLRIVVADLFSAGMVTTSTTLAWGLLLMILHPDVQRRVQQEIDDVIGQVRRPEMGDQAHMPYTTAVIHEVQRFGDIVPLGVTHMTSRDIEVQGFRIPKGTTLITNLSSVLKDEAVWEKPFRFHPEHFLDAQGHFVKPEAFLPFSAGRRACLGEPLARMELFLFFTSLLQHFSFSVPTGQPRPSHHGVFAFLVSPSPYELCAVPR
Sequence of Sodium-dependent serotonin transporter (Homo sapiens, UniProt P31645) (P31645 whole entry): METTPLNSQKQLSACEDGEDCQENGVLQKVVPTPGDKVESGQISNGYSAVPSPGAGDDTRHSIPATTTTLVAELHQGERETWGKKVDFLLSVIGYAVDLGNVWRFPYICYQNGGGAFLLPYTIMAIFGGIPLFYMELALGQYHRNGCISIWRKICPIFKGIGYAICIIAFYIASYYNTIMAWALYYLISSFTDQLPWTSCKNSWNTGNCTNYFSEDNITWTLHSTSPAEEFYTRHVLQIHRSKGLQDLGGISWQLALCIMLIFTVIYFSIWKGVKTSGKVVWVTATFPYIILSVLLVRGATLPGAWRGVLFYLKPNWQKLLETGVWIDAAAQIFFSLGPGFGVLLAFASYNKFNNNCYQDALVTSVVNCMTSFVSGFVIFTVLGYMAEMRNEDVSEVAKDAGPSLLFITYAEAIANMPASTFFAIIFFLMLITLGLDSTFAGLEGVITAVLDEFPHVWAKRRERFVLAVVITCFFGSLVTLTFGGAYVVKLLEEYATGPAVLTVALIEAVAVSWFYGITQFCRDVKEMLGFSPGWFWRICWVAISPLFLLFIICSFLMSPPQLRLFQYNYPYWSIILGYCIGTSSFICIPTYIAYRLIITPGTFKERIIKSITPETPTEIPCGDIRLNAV
Description for physchem: Dissociation constant, pKa of the compound

## CCN(CC)C(=O)C1(c2ccccc2)CC1CN (centres undefined)
[1]
  IC50: 47 nM
[2]
  IC50: 203 nM
[3]
  logD: 0.2
[4]
  logP: 1.7
[5]
  CLhep predicted at 1 µM: 3.1 mL/min/kg
[6]
  CLhep predicted at 1 µM: 24 mL/min/kg
[7]
  bioavailability: 85%
[8]
  dose excreted: > 80%
Transporter [9]
  IC50: 100 nM
physchem
  pKa: 9.5
[10]
  IC50: 37 µM

## C=CCN(CC=C)C(=O)[C@@]1(c2cccs2)C[C@H]1CN
[1]
  IC50: 11 nM
[3]
  logD: 0.3
[4]
  logP: 2
[5]
  CLhep predicted at 1 µM: 9.9 mL/min/kg
[6]
  CLhep predicted at 1 µM: 61 mL/min/kg
Cytochrome P450 2D6
  IC50: 6 µM
[11]
  Cmax: 522 ng/mL
[12]
  Tmax: 30 min
[13]
  AUC: 1130 ng·h/mL
[14]
  half-life: 72 min
[15]
  CL/F: 444 mL/min/kg
[16]
  concentration at 1 h: 127 ng/g
[17]
  concentration at 4 h: 26 ng/g
[18]
  Kp at 1 h: 0.6
[19]
  Kp at 4 h: 1.4
[20]
  AUC: 721 ng·h/mL
[21]
  half-life: 36 min
[22]
  MRT: 42 min
[23]
  clearance: 102 mL/min/kg
[24]
  CL renal: 11 mL/min/kg
[25]
  Vd: 4.4 L/kg
[26]
  Vd: 5.3 L/kg
[27]
  bioavailability: 12%
Rattus norvegicus [28]
  Activity: 56%
Rattus norvegicus [29]
  Activity: 60%
physchem
  pKa: 9.4
In vitro
  Papp A→B: 16.7 ×10⁻⁶ cm/s
[30]
  IC50: 2.3 nM
[31]
  IC50: 32 nM
[32]
  IC50: > 10 µM
Transporter [33]
  IC50: 4.6 nM
[10]
  IC50: 19 µM

## CNCC[C@@H](Oc1ccccc1C)c1ccccc1 [ATOMOXETINE]
[34]
  Cmax: 170 ng/mL
[35]
  Tmax: 2 h
Rattus norvegicus [36]
  AUC: 910 ng·h/mL
[37]
  half-life: 168 min
Rattus norvegicus [38]
  F: 1.5%
In vitro
  Papp A→B: 43.7 ×10⁻⁶ cm/s
